Data as given in patent publication US20250074889A1, “Novel Aminobenzene Derivative Having Cancer Cell Growth Inhibitory Effect, and Preventive or Therapeutic Pharmaceutical Composition Containing Same as Active Ingredient” (Daewoong Pharmaceutical Co., Ltd., priority 2022, published 2025).

How the values were obtained:
Type in all cases: cell-based
[1] = test system: transcription factor TEAD; assay: Activity inhibition test of transcription factor TEAD (ONE-Glo luciferase, TEAD reporter-MCF7 cell line); details: Homo sapiens; TEAD Reporter-MCF7 cells, 24 hours treatment, luciferase luminescence
Description: The transcription factor TEAD activity of the compounds prepared in Examples was measured by the ONE-Glo™ Luciferase assay (Promega, Catalog #E6110) method using the Hippo Pathway TEAD reporter-MCF7 recombinant cell line (BPS Bioscience, Catalog #60618).
Specifically, the TEAD Reporter-MCF7 cell line contains the firefly luciferase gene whose expression is regulated under the control of TEAD response elements in the MCF7, which is a human breast cancer cell line. In the cell line, a non-phosphorylated YAP/TAZ exists in the nucleus in a non-stressed condition, which continuously induces expression of the luciferase reporter.
TEAD Reporter-MCF7 cells were prepared in 100 μL of cell culture medium (MEM medium, 10% FBS, 1% P/S, 400 μg/mL Geneticin, 1% […], 1 mM NA pyruvate, 10 μg/mL Insulin) in a white clear bottom 96-well microplate. The prepared plate was incubated in a 5% CO2 incubator at 37° C. for 24 hours, and then the previously prepared compounds of Examples were finally treated at concentrations of 0.001, 0.01, 0.1, 1, and 10 µM, which were repeated three times for all treatment solutions. The plates treated with the compounds of Examples were incubated in a 5% CO2 incubator at 37° C. for 24 hours. 100 μL/well of the substrate aqueous solution containing luciferin was added to a white clear-bottom 96 well microplate, thereby initiating an enzyme reaction. The reaction was performed at room temperature for 5 minutes, and the luminescence (integration time 1000 ms) was measured using a Flexstation3 multi-mode microplate reader. In accordance with the instructions for the ONE-Glo™ Luciferase Assay, the luciferase enzyme activity, which represents the activity of the transcription factor TEAD, was measured by a chemiluminescence method, and the inhibitory activity of the compound according to the present invention was calculated. The results of each compound were analyzed using Microsoft Excel, and the IC50 values were calculated by GraphPad Prism software.

[2] = test system: NCI-H226 human mesothelioma cell line; assay: Cell growth inhibition test (CellTiter-Glo), NCI-H226; details: NCI-H226 cells
Description: (§1) The cell growth for the compounds prepared in Examples was measured by CellTiter-Glo® Luminescent Cell Viability (Promega, Catalog #G7571) method using NCI-H226 (addexbio), NCI-H28 (Korea Cell Line Bank) and MSTO-211H (elabscience) human mesothelioma cell lines. This evaluation method is a method in which when luciferase enzyme is activated by ATP flowing out from living cells, it reacts with a luciferin substrate, and the enzyme activity at this time is measured to confirm cell viability.
(§2) Specifically, NCI-H226, NCI-H28, and MSTO-211H cells were prepared in 100 μL of cell culture medium (RPMI medium, 10% FBS, 1% P/S, 4.5 g/L D-Glucose, 2.383 g/L HEPES Buffer, L-Glutamine, 1.5 g/L Sodium Bicarbonate, 110 mg/L Sodium pyruvate) in a white clear bottom 96-well microplate. The prepared plate was incubated in a 5% CO2 incubator at 37° C. for 24 hours, and then the previously prepared compounds of Examples were finally treated at concentrations of 0.001, 0.01, 0.1, 1, and 10 μM, which was repeated three times for all treatment solutions. The plates treated with the compounds of Examples were incubated in a 5% CO2 incubator at 37° C. 100 μL/well of the substrate aqueous solution containing luciferin was added to a white clear-bottom 96 well microplate, thereby initiating an enzyme reaction. The reaction was performed at room temperature in the dark for 10 minutes, and the luminescence was measured using a Flexstation3 multi-mode microplate reader. In accordance with the instructions for the CellTiter-Glo™ Luminescednt Cell Viability, the luciferase enzyme activity, which represents the amount of ATP, was measured by a chemiluminescence method, and the inhibitory activity of the compounds according to the present invention was calculated. The results of each compound were analyzed using Microsoft Excel, and the IC50 values were calculated using GraphPad Prism software.

[3] = test system: MSTO-211H human mesothelioma cell line; assay: Cell growth inhibition test (CellTiter-Glo), MSTO-211H; details: MSTO-211H cells
Description: as §1, §2

[4] = test system: NCI-H28 human mesothelioma cell line; assay: Cell growth inhibition test (CellTiter-Glo), NCI-H28; details: NCI-H28 cells
Description: as §1, §2

| SMILES | IC50 [1] | IC50 [2] | IC50 [3] | IC50 [4] |
| --- | --- | --- | --- | --- |
| C=CC(=O)Nc1ccc(Nc2ccc(C(F)(F)F)cn2)c(-c2ccccn2)c1 [Example 4, N-(3-(pyridin-2-yl)-4-((5-(trifluoromethyl)pyridin-2-yl)amino)phenyl)acrylamide] | 17.8 nM | 6 nM | 130 nM | 3310 nM |
| C=CC(=O)Nc1ccc(Nc2ccc(C(F)(F)F)cn2)c(-c2ccncn2)c1 [Example 15, N-(3-(pyrimidin-4-yl)-4-((5-(trifluoromethyl)pyridin-2-yl)amino)phenyl)acrylamide] | 42.8 nM | 71.8 nM | 552 nM | 1570 nM |
| C=CC(=O)Nc1cc(F)c(Nc2ccc(C(F)(F)F)cn2)c(-c2ccccn2)c1 [Example 29, N-(3-fluoro-5-(pyridin-2-yl)-4-((5-(trifluoromethyl)pyridin-2-yl)amino)phenyl)acrylamide] | 21.5 nM | 20 nM | 196 nM | 2550 nM |
| C=CC(=O)Nc1ccc(Nc2cc(C3CC3)c(Cl)cn2)c(-c2ccccn2)c1 [Example 30, N-(4-((5-chloro-4-cyclopropylpyridin-2-yl)amino)-3-(pyridin-2-yl)phenyl)acrylamide] | 31.6 nM | 10 nM | 2210 nM | 8790 nM |
| C=CC(=O)Nc1ccc(Nc2ncc(C(F)(F)F)cc2F)c(-c2cn(C)cn2)c1 [Example 36, N-(4-((3-fluoro-5-(trifluoromethyl)pyridin-2-yl)amino)-3-(1-methyl-1H-imidazol-4-yl)phenyl)acrylamide] | 27 nM | 12 nM | > 10000 nM | > 10000 nM |
| C=CC(=O)Nc1cnc(Nc2ccc(C(F)(F)F)cn2)c(-c2ccccn2)c1 [Example 39, N-(2′-((5-(trifluoromethyl)pyridin-2-yl)amino)-[2,3′-bipyridin]-5′-yl)acrylamide] | 40.3 nM | 15.8 nM | 194 nM | 3280 nM |
| C=CC(=O)Nc1ccc(Nc2ncc(C(F)(F)F)cc2Cl)c(-c2ccn(C)n2)c1 [Example 53, N-(4-((3-chloro-5-(trifluoromethyl)pyridin-2-yl)amino)-3-(1-methyl-1H-pyrazol-3-yl)phenyl)acrylamide] | 30.7 nM | 62.8 nM | 8240 nM | 1670 nM |

Stronger by IC50 [1], values ahead:

| IC50 [1] | IC50 [2] | IC50 [3] | IC50 [4] | SMILES |
| --- | --- | --- | --- | --- |
| 10 nM | 3 nM | 221 nM | 1380 nM | C=CC(=O)Nc1ccc(Nc2ccc(C(F)(F)F)cn2)c(-c2cn(C)cn2)c1 [Example 6, N-(3-(1-methyl-1H-imidazol-4-yl)-4-((5-(trifluoromethyl)pyridin-2-yl)amino)phenyl)acrylamide] |
| 11.5 nM | 9 nM | 3270 nM | 2680 nM | C=CC(=O)Nc1ccc(Nc2ncc(C(F)(F)F)cc2F)c(-c2ccccn2)c1 [Example 21, N-(4-((3-fluoro-5-(trifluoromethyl)pyridin-2-yl)amino)-3-(pyridin-2-yl)phenyl)acrylamide] |
| 5.3 nM | 3 nM | 105 nM | 3020 nM | C=CC(=O)Nc1ccc(Nc2ccc(C(F)(F)F)cc2)c(-c2cn(C)cn2)c1 [Example 35, N-(3-(1-methyl-1H-imidazol-4-yl)-4-((4-(trifluoromethyl)phenyl)amino)phenyl)acrylamide] |
| 4.5 nM | 13 nM | 3750 nM | 1100 nM | C=CC(=O)Nc1ccc(Nc2cc(Cl)c(C(F)(F)F)cn2)c(-c2ccn(C)n2)c1 [Example 37, N-(4-((4-chloro-5-(trifluoromethyl)pyridin-2-yl)amino)-3-(1-methyl-1H-pyrazol-3-yl)phenyl)acrylamide] |
| 15 nM | 6.6 nM | 1130 nM | 5540 nM | C=CC(=O)Nc1ccc(Nc2ccc(C(F)(F)F)c(F)c2)c(-c2cn(C)cn2)c1 [Example 40, N-(4-((3-fluoro-4-(trifluoromethyl)phenyl)amino)-3-(1-methyl-1H-imidazol-4-yl)phenyl)acrylamide] |
| 12.8 nM | 65 nM | 167 nM | 1250 nM | C=CC(=O)Nc1ccc(Nc2cc(Cl)c(Cl)cn2)c(-c2ccn(C)n2)c1 [Example 55, N-(4-((4,5-dichloropyridin-2-yl)amino)-3-(1-methyl-1H-pyrazol-3-yl)phenyl)acrylamide] |
